Experiment [1] addresses T1, α1BAR-α2C(L^45.52) chimera (V197^45.52→L) (Homo sapiens, UniProt P35368, V197L).
T1 sequence (P35368 35-520 V197L): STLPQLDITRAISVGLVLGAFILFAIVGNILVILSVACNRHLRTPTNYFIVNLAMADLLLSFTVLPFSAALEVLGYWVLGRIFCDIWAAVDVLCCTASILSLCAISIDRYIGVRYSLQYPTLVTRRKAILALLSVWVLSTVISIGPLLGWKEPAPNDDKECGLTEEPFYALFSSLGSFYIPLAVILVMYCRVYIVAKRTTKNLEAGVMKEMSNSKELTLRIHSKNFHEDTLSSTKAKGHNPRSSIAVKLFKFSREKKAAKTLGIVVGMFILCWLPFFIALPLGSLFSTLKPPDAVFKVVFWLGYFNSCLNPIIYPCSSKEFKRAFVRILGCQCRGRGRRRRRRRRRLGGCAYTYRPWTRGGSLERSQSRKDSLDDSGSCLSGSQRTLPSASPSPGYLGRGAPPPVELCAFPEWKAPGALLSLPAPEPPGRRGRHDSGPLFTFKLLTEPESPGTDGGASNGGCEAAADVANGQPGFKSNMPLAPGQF
Nature of the experiment: HTRF ligand-binding assay on whole transfected HEK293T/17 cells (QAPB saturation; competition with QAPB tracer). For orientation: In TR-FRET formats the signal depends on donor and acceptor labels being close together.

In the next experiment the target is T2, α1BAR-α2C(YLLY) chimera (Homo sapiens, UniProt P35368, A122L/L314Y/V197L/W121Y).
T2 sequence (P35368 35-520 W121Y/A122L/V197L/L314Y): T1 sequence (P35368 35-520 V197L) with W87Y, A88L, L280Y
The description is as above.

In experiment [2] the target is α1BAR-α2C(YLLY;ECL2) chimera (Homo sapiens, UniProt P35368, A122L/DEL188-193/E186Y/E194Q/E199D/F202W/G179P/I178F/INS181VSLYRQP/K185A/L182D/L314Y/P201T/T198N/V197L/W121Y/W184A). The experiment is described as above. The settings on record: competition with 50 nM QAPB tracer, whole cells, mean; read-out: pKi (competition binding) (converted).
Another experiment concerns α2ARs over α1ARs. The settings on record: reported; cited from earlier work.
Another experiment relates to α2CAR L128^3.29→A. Details: method as in PMID 31801061. The settings on record: L128^3.29→A in α2CAR vs wild type; cited from earlier work.
In the next experiment the target is T3, wild-type α1BAR (Homo sapiens, UniProt P35368).
T3 sequence (P35368 35-520 limits assumed): T1 sequence (P35368 35-520 V197L) with L163V
Nature of the experiment: HTRF ligand-binding assay on whole transfected HEK293T/17 cells (QAPB saturation; competition with QAPB tracer).

For another experiment, the target named is T4, wild-type α2CAR (Homo sapiens, UniProt P18825).
T4 sequence (P18825 37-462 limits assumed): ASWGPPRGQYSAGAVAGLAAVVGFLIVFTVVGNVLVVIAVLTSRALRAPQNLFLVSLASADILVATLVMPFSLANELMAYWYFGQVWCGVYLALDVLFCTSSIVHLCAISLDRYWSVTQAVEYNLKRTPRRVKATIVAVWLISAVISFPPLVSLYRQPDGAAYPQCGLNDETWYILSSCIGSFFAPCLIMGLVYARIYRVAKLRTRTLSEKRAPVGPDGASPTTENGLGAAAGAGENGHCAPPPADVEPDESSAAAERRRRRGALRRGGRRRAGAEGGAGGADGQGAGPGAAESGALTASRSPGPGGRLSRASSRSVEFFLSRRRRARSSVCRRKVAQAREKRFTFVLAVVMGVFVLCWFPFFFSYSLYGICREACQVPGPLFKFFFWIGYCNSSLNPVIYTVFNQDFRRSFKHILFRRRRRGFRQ
The description is as above.

Experiment [3] addresses α1BAR-α2C(YLLY;N^2.64) chimera (Homo sapiens, UniProt P35368, A122L/L105N/L314Y/V197L/W121Y). The experiment is described as above.

The structures appear in SMILES notation. Residue numbers refer to the chain shown, from its start. Several values for one entry are separate records, joined by “and”; a condition that tells them apart may be missing. Equal values may be shown once. Read-outs that look alike come from different tables or passages of the source.

Chain of α1BAR-α2C(YLLY;ECL2) chimera (P35368 with tags, fused parts or gaps with the stated changes): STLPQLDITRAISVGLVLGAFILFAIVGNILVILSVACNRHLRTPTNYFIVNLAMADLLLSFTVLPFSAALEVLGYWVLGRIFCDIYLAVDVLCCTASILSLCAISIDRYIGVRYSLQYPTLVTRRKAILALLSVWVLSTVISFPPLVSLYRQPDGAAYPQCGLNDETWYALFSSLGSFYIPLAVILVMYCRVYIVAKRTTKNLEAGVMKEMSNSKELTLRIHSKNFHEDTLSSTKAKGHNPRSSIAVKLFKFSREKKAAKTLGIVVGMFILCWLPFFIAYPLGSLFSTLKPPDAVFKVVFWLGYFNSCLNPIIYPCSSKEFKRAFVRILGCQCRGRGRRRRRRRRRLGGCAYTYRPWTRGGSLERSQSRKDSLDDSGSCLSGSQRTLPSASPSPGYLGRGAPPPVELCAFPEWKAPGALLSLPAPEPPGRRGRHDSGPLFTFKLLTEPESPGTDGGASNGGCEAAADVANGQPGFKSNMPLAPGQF
Chain of α1BAR-α2C(YLLY;N^2.64) chimera (P35368 35-520 L105N/W121Y/A122L/V197L/L314Y): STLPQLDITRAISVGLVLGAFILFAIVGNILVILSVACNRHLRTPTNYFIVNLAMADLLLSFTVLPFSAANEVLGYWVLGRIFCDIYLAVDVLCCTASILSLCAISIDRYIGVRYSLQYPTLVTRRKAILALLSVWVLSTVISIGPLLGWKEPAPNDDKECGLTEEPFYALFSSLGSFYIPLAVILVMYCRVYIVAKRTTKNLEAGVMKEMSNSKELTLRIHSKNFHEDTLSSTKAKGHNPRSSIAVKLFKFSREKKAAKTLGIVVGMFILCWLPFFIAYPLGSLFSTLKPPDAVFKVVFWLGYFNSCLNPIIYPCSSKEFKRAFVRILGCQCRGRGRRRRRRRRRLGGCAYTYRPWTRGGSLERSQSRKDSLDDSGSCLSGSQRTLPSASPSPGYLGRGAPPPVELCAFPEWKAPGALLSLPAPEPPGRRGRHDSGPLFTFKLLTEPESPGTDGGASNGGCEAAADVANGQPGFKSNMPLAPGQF

`CCS(=O)(=O)N1CCC[C@@H]2CN3CCc4cc(OC)ccc4[C@@H]3C[C@@H]21` [RS79948]: the “higher affinity compared to wild-type α1BAR” value in experiment [1] (V197^45.52→L vs wild-type α1BAR) worked out at 2 fold. The Ki in experiment [1] (competition with 2 nM QAPB tracer, whole cells, mean, read-out: pKi (competition binding) (converted)) is 589 nM; in experiment [1] (construct α1BAR-α2C(L45.52), competition with RS79948 against QAPB tracer, one value per experiment date, read-out: Calculated pKi values (converted)), 594 nM and 645 nM and 549 nM; on α1BAR-α2C(YLLY) chimera (competition with 50 nM QAPB tracer, whole cells, mean, read-out: pKi (competition binding) (converted)), 1.66 nM; at α1BAR-α2C(YLLY) chimera (construct α1BAR-α2C(YLLY), competition with RS79948 against QAPB tracer, one value per experiment date, read-out: Calculated pKi values (converted)), 0.869 nM and 1.72 nM and 1.67 nM and 3.15 nM; in experiment [2], 9.55 nM; on wild-type α1BAR (Calculated pKi values, construct α1BAR, competition with RS79948 against QAPB tracer, one value per experiment date), 1270 nM and 1110 nM and 1070 nM and 1900 nM and 1250 nM and 1510 nM and 981 nM. Moreover, the Ki on wild-type α1BAR (pKi (competition binding), competition with 2 nM QAPB tracer, whole cells, mean) is 1260 nM; at wild-type α2CAR (Calculated pKi values, construct α2CAR, competition with RS79948 against QAPB tracer, one value per experiment date), 0.124 nM and 0.311 nM and 0.324 nM and 0.183 nM and 0.189 nM; on wild-type α2CAR (pKi (competition binding), competition with 50 nM QAPB tracer, whole cells, mean) it was 0.214 nM; in experiment [3] it was 1.38 nM. Also, the “affinity improved compared to wild-type α1BAR” value at α1BAR-α2C(YLLY) chimera (α1BAR-α2C(YLLY) vs wild-type α1BAR) was “almost three orders of magnitude”. In addition, the “selectivity for α2ARs over α1ARs” value in the experiment on α2ARs over α1ARs is on record as ~ 10,000 fold. In addition, in the experiment with α2CAR L128^3.29→A, the “decrease of the ability to antagonize agonist-induced signaling” value was 50 fold.
